Test: Measured activity expressed as ID50 (analogue)/ID50 (paclitaxel), where ID50 is the concentration of compound leading to 50% inhibition of the rate microtubule disassembly
Type: functional

Row | Compound | Activity
1 | COc1ccc([C@@H](NC(=O)c2ccccc2)[C@@H](O)C(=O)O[C@H]2C[C@@]3(O)[C@@H](OC(=O)c4ccccc4)[C@H]4[C@](C)(C(=O)[C@H](OC(C)=O)C(=C2C)C3(C)C)[C@@H](O)CC2OC[C@]24OC(C)=O)cc1 (some centres undefined) | 0.5
2 | CC(=O)O[C@H]1C(=O)[C@]2(C)[C@@H](O)CC3OC[C@@]3(OC(C)=O)[C@H]2[C@H](OC(=O)c2ccccc2)[C@]2(O)C[C@H](OC(=O)[C@@H](NC(=O)OC(C)(C)C)[C@@H](O)c3ccccc3)C(C)=C1C2(C)C (some centres undefined) | 108
3 | C/C=C/C(=O)O[C@H]1C[C@@]2(O)[C@@H](OC(=O)c3ccccc3)[C@H]3[C@](C)(C(=O)[C@H](OC(C)=O)C(=C1C)C2(C)C)[C@@H](O)CC1OC[C@]13OC(C)=O (some centres undefined) | 100
4 | CC(=O)O[C@@]12COC1C[C@H](O)[C@@]1(C)C(=O)[C@H](O)C3=C(C)[C@@H](OC(=O)[C@H](O)[C@@H](CC(C)(C)C)NC(=O)OC(C)(C)C)C[C@@](O)([C@@H](OC(=O)c4ccccc4)[C@@H]12)C3(C)C (some centres undefined) | 1.45
5 | CC(=O)O[C@@H]1C2=C(C)[C@@H](OC(=O)[C@H](O)[C@@H](NC(=O)OC(C)(C)C)[C@H]3COC(C)(C)O3)C[C@@](O)([C@@H](OC(=O)c3ccccc3)[C@H]3[C@@](C)([C@@H](O)CC4OC[C@]43OC(C)=O)[C@H]1O)C2(C)C (some centres undefined) | 7.91
6 | CC(=O)O[C@@]12COC1C[C@H](O)[C@@]1(C)C(=O)[C@H](O)C3=C(C)[C@@H](OC(=O)[C@H](O)[C@@H](C=C(C)C)NC(=O)OC(C)(C)C)C[C@@](O)([C@@H](OC(=O)c4ccccc4)[C@@H]12)C3(C)C (some centres undefined) | 0.64
7 | CO[C@H]1[C@H](OC(C)=O)C2=C(C)[C@@H](OC(=O)[C@H](O)[C@@H](NC(=O)c3ccccc3)c3ccccc3)C[C@@](O)([C@@H](OC(=O)c3ccccc3)[C@H]3[C@@]1(C)[C@@H](O)CC1OC[C@]13OC(C)=O)C2(C)C (some centres undefined) | 0.35
8 | CC(=O)O[C@@]12COC1C[C@H](O)[C@@]1(C)C(=O)[C@H](O)C3=C(C)[C@@H](OC(=O)[C@H](O)[C@@H](/C=C/c4ccccc4)NC(=O)OC(C)(C)C)C[C@@](O)([C@@H](OC(=O)c4ccccc4)[C@@H]12)C3(C)C (some centres undefined) | 1.45
9 | CC(=O)O[C@H]1C(=O)[C@]2(C)[C@@H](O)CC3OC[C@@]3(OC(C)=O)[C@H]2[C@H](OC(=O)c2ccccc2)[C@]2(O)C[C@H](OC(=O)[C@H](O)[C@H](NC(=O)c3ccc(Cl)cc3)c3ccccc3)C(C)=C1C2(C)C (some centres undefined) | 2.4
10 | CC(=O)O[C@H]1C(=O)[C@]2(C)[C@@H](O)CC3OC[C@@]3(OC(C)=O)[C@H]2[C@H](OC(=O)c2ccccc2)[C@]2(O)C[C@H](OC(=O)[C@H](NC(=O)OC(C)(C)C)[C@H](O)c3ccccc3)C(C)=C1C2(C)C (some centres undefined) | 10
11 | CC(=O)O[C@H]1C(=O)[C@]2(C)[C@@H](O)CC3OC[C@@]3(OC(C)=O)[C@H]2[C@H](OC(=O)c2ccccc2)[C@]2(O)C[C@H](OC(=O)[C@@H](O)[C@@H](NC(=O)c3ccccc3)c3ccccc3)C(C)=C1C2(C)C (some centres undefined) | 4.5
12 | COC(=O)[C@H]1CC2OC[C@@]2(OC(C)=O)[C@H]2[C@H](OC(=O)c3ccccc3)[C@]3(O)C[C@H](OC(=O)[C@H](O)[C@@H](NC(=O)c4ccccc4)c4ccccc4)C(C)=C([C@@H](OC(C)=O)[C@H](C(=O)OC)[C@]12C)C3(C)C (some centres undefined) | 0.91
13 | CC(=O)O[C@H]1C(=O)[C@]2(C)[C@@H](O)CC3OC[C@@]3(OC(C)=O)[C@H]2[C@H](OC(=O)c2ccccc2)[C@]2(O)C[C@H](OC(=O)[C@H](O)[C@@H](NC(=O)c3ccccc3)C3CCCCC3)C(C)=C1C2(C)C (some centres undefined) | 0.29
14 | CC(=O)O[C@@]12COC1C[C@H](O)[C@@]1(C)C(=O)[C@H](O)C3=C(C)[C@@H](OC(=O)[C@@H](O)[C@H](N)c4ccccc4)C[C@@](O)([C@@H](OC(=O)c4ccccc4)[C@@H]12)C3(C)C (some centres undefined) | 30
15 | CC(=O)O[C@@H]1C2=C(C)[C@@H](OC(=O)[C@H](O)[C@@H](NC(=O)OC(C)(C)C)c3ccccc3)C[C@@](O)([C@@H](OC(=O)c3ccccc3)[C@H]3[C@@](C)([C@@H](O)CC4OC[C@]43OC(C)=O)[C@H]1O)C2(C)C (some centres undefined) | 0.87
16 | CC(=O)O[C@@]12COC1C[C@H](O)[C@@]1(C)C(=O)[C@H](O)C3=C(C)[C@@H](OC(=O)[C@@H](NC(=O)c4ccccc4)[C@@H](O)c4ccccc4)C[C@@](O)([C@@H](OC(=O)c4ccccc4)[C@@H]12)C3(C)C (some centres undefined) | 170
17 | CC(=O)O[C@H]1C(=O)[C@]2(C)[C@@H](O)CC3OC[C@@]3(OC(C)=O)[C@H]2[C@H](OC(=O)c2ccccc2)[C@]2(O)C[C@H](OC(=O)[C@H](O)[C@H](NC(=O)c3ccccc3)c3ccco3)C(C)=C1C2(C)C (some centres undefined) | 0.9
18 | CC(=O)O[C@@H]1C2=C(C)[C@@H](OC(=O)[C@H](O)[C@H](C)NC(=O)OC(C)(C)C)C[C@@](O)([C@@H](OC(=O)c3ccccc3)[C@H]3[C@@](C)([C@@H](O)CC4OC[C@]43OC(C)=O)[C@H]1O)C2(C)C (some centres undefined) | 1.08
19 | CC(=O)O[C@@]12COC1C[C@H](O)[C@@]1(C)C(=O)[C@H](O)C3=C(C)[C@@H](OC(=O)[C@H](O)[C@@H](NC(=O)OC(C)(C)C)c4ccccc4)[C@H](O)[C@@](O)([C@@H](OC(=O)c4ccccc4)[C@@H]12)C3(C)C (some centres undefined) | 0.8
20 | CC(=O)O[C@@]12COC1C[C@H](O)[C@@]1(C)C(=O)[C@H](O)C3=C(C)[C@@H](OC(=O)[C@H](O)Cc4ccccc4)C[C@@](O)([C@@H](OC(=O)c4ccccc4)[C@@H]12)C3(C)C (some centres undefined) | 4.5

Row | Compound | Activity
21 | CC(=O)O[C@@H]1C2=C(C)[C@@H](OC(=O)[C@H](O)[C@@H](NC(=O)OC(C)(C)C)C(O)CO)C[C@@](O)([C@@H](OC(=O)c3ccccc3)[C@H]3[C@@](C)([C@@H](O)CC4OC[C@]43OC(C)=O)[C@H]1O)C2(C)C (some centres undefined) | 2.71
22 | CC(=O)O[C@@]12COC1C[C@H](O)[C@@]1(C)C(=O)[C@H](O)C3=C(C)[C@@H](OC(=O)[C@H](O)[C@@H](NC(=O)OC(C)(C)C)c4ccccc4)[C@@H]4OC(C)(C)O[C@]4([C@@H](OC(=O)c4ccccc4)[C@@H]12)C3(C)C (some centres undefined) | 3
23 | CC(=O)O[C@@]12COC1C[C@H](O)[C@@]1(C)C(=O)[C@H](O)C3=C(C)[C@@H](OC(=O)[C@H](NC(=O)c4ccccc4)[C@H](O)c4ccccc4)C[C@@](O)([C@@H](OC(=O)c4ccccc4)[C@@H]12)C3(C)C (some centres undefined) | 10
24 | CC(=O)O[C@@]12COC1C[C@H](O)[C@@]1(C)C(=O)[C@H](O)C3=C(C)[C@@H](OC(=O)/C=C/c4ccccc4)C[C@@](O)([C@@H](OC(=O)c4ccccc4)[C@@H]12)C3(C)C (some centres undefined) | 23
25 | CC(=O)O[C@H]1C(=O)[C@]2(C)[C@@H](O)CC3OC[C@@]3(OC(C)=O)[C@H]2[C@H](OC(=O)c2ccccc2)[C@]2(O)C[C@H](OC(=O)[C@H](O)[C@H](NC(=O)c3ccccc3)c3ccccn3)C(C)=C1C2(C)C (some centres undefined) | 0.7
26 | CC(=O)O[C@H]1C(=O)[C@]2(C)[C@@H](O)CC3OC[C@@]3(OC(C)=O)[C@H]2[C@H](OC(=O)c2ccccc2)[C@]2(O)C[C@H](OC(=O)[C@H](O)[C@H](NC(=O)c3ccccc3)c3ccc(O)cc3)C(C)=C1C2(C)C (some centres undefined) | 0.8
27 | CC(=O)O[C@H]1C(=O)[C@]2(C)[C@@H](O)CC3OC[C@@]3(OC(C)=O)[C@H]2[C@H](OC(=O)c2ccccc2)[C@]2(O)C[C@H](OC(=O)[C@H](O)[C@H](NC(=O)C(C)=O)c3ccccc3)C(C)=C1C2(C)C (some centres undefined) | 3.5
28 | CC(=O)O[C@@]12COC1C[C@H](O)[C@@]1(C)C(=O)[C@H](O)C3=C(C)[C@@H](OC(=O)[C@@H](O)Cc4ccccc4)C[C@@](O)([C@@H](OC(=O)c4ccccc4)[C@@H]12)C3(C)C (some centres undefined) | 3.5
29 | CC(=O)O[C@@]12COC1C[C@H](O)[C@@]1(C)C(=O)[C@H](O)C3=C(C)[C@@H](OC(=O)[C@H](O)[C@H](NC(=O)C4CCCC4)C(C)(C)C)C[C@@](O)([C@@H](OC(=O)c4ccccc4)[C@@H]12)C3(C)C (some centres undefined) | 1.5
30 | CO[C@H]1CC2OC[C@@]2(OC(C)=O)[C@H]2[C@H](OC(=O)c3ccccc3)[C@]3(O)C[C@H](OC(=O)[C@H](O)[C@@H](NC(=O)OC(C)(C)C)c4ccccc4)C(C)=C([C@@H](OC(C)=O)[C@H](O)[C@]12C)C3(C)C (some centres undefined) | 1.74
31 | CC(=O)O[C@@]12COC1C[C@H](O)[C@@]1(C)C(=O)[C@H](O)C3=C(C)[C@@H](OC(=O)[C@H](O)[C@H](NC(=O)N(C)c4ccc[nH]4)C(C)(C)C)C[C@@](O)([C@@H](OC(=O)c4ccccc4)[C@@H]12)C3(C)C (some centres undefined) | 0.96
32 | CC(=O)O[C@@]12COC1C[C@H](O)[C@@]1(C)C(=O)[C@H](O)C3=C(C)[C@@H](OC(=O)[C@H](O)[C@H](NC(=O)c4cccs4)C(C)(C)C)C[C@@](O)([C@@H](OC(=O)c4ccccc4)[C@@H]12)C3(C)C (some centres undefined) | 0.42
33 | CC(=O)O[C@H]1C(=O)[C@]2(C)[C@@H](O)CC3OC[C@@]3(OC(C)=O)[C@H]2[C@H](OC(=O)C2CCCCC2)[C@]2(O)C[C@H](OC(=O)[C@H](O)[C@@H](NC(=O)C3CCCCC3)C3CCCCC3)C(C)=C1C2(C)C (some centres undefined) | 0.47
34 | CC(=O)O[C@@H]1C2=C(C)[C@@H](OC(=O)[C@H](O)[C@@H](NC(=O)c3ccccc3)c3ccccc3)C[C@@](O)([C@@H](OC(=O)c3ccccc3)[C@H]3[C@@](C)([C@@H](O)CC4OC[C@]43OC(C)=O)[C@H]1O)C2(C)C (some centres undefined) | 0.86
35 | CC(=O)N[C@@H](c1ccccc1)[C@@H](O)C(=O)O[C@H]1C[C@@]2(O)[C@@H](OC(=O)c3ccccc3)[C@H]3[C@@](C)([C@@H](O)CC4OC[C@]43OC(C)=O)[C@@H](O)[C@H](OC(C)=O)C(=C1C)C2(C)C (some centres undefined) | 3.17
36 | CC(=O)O[C@H]1C(=O)[C@]2(C)[C@@H](O)CC3OC[C@@]3(OC(C)=O)[C@H]2[C@H](OC(=O)c2ccccc2)[C@]2(O)C[C@H](OC(=O)C(O)C(C)O)C(C)=C1C2(C)C (some centres undefined) | 60
37 | CC(=O)O[C@@H]1C2=C(C)[C@@H](OC(=O)[C@H](O)[C@@H](NC(=O)OC(C)(C)C)C3CCCCC3)C[C@@](O)([C@@H](OC(=O)c3ccccc3)[C@H]3[C@@](C)([C@@H](O)CC4OC[C@]43OC(C)=O)[C@H]1O)C2(C)C (some centres undefined) | 0.57
38 | CC(=O)O[C@@]12COC1C[C@H](O)[C@@]1(C)C(=O)[C@H](O)C3=C(C)[C@@H](OC(=O)[C@H](NC(=O)OC(C)(C)C)[C@H](O)c4ccccc4)C[C@@](O)([C@@H](OC(=O)c4ccccc4)[C@@H]12)C3(C)C (some centres undefined) | 10
39 | CC(=O)O[C@H]1C(=O)[C@]2(C)[C@@H](O)CC3OC[C@@]3(OC(C)=O)[C@H]2[C@H](OC(=O)c2ccccc2)[C@]2(O)C[C@H](OC(=O)[C@H](O)[C@H](NC(=O)c3ccc(C)cc3)c3ccccc3)C(C)=C1C2(C)C (some centres undefined) | 1.1

Source: ChEMBL document CHEMBL1130335, “Comparative molecular field analysis of a series of paclitaxel analogues” (J Med Chem, 1997)
